Two compounds from article PMC5064002, “Sintokamide A Is a Novel Antagonist of Androgen Receptor That Uniquely Binds Activation Function-1 in Its Amino-terminal Domain” (The Journal of Biological Chemistry, 2016) can be followed below.

In experiment [1] the target is T1, recombinant AR LBD (Rattus norvegicus, UniProt P15207).
T1 construct: purchased Invitrogen
T1 sequence (P15207 651-882 limits assumed): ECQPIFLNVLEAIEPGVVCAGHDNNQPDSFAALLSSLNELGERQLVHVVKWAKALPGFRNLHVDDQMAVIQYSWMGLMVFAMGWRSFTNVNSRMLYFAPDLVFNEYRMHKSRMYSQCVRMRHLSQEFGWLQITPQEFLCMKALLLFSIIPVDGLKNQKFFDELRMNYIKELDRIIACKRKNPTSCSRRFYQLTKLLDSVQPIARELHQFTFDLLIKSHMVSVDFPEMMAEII
As to the kind of experiment: Fluorescence polarization competition assay (Androgen Receptor Competitor Assay). In kind it is binding. As to conditions: AR LBD 25 nM, 1 nM Fluormone AL Green; SINT1 and EPI-002 tested at 0.5–50 μM. The method, then:
The Androgen Receptor Competitor Assay (Green) kit (Invitrogen) was used. […] The reactions with serial dilutions of test compounds were completed in 40-μl aliquots in triplicates. Displacement of Fluormone AL Green from AR LBD by the test compounds was measured by the change in fluorescence polarization using Infinite® M1000 (Tecan) with excitation at 470 nm and emission at 535 nm.
To determine whether the mechanism of action of SINT1 to inhibit androgen-induced AR transcriptional activity was mediated by binding to AR LBD, a fluorescence polarization competition assay was used. This assay uses recombinant AR LBD to reveal whether a test compound competes for ligand binding of Fluoromone that binds to this domain.
(In general: Polarisation of emitted light reports the rotation of a fluorescent probe.)

Experiment [2] concerns the target T2, AR NTD (Homo sapiens, UniProt P10275).
T2 construct: expression vector for AR NTD encoding amino acids 1–558 fused to the Gal4 DBD; expressed in transfected cells; host or cells: LNCaP
T2 sequence (P10275 1-558): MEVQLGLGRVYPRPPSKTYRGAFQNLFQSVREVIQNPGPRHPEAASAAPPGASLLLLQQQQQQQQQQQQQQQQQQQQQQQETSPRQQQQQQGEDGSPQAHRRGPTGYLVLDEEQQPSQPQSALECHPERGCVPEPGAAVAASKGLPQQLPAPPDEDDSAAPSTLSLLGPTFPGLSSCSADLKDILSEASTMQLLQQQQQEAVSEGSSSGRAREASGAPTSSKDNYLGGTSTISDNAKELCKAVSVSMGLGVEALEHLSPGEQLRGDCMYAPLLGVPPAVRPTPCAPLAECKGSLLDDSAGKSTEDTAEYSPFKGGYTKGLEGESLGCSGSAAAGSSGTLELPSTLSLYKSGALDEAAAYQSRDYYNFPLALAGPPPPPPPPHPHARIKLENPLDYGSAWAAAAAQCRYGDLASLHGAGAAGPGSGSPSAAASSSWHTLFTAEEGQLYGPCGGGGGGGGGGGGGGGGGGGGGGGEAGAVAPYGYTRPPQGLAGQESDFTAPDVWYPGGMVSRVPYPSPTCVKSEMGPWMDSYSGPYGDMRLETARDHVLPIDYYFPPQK
In words: Transactivation of AR NTD (AR-(1–558)-Gal4 DBD, 5xGal4UAS-TATA-luciferase) in LNCaP cells. It counts as cell-based. As to conditions: for IL-6-induced transactivation of AR NTD: 20 μM SINT1 or 25 μM EPI-002, 50 ng/ml IL-6 24 h; for forskolin-induced transactivation of AR NTD: 20 μM SINT1 or 25 μM EPI-002, 50 μM forskolin 24 h. The method, then: LNCaP cells were co-transfected with 5xGal4UAS-TATA-luciferase and AR-(1–558)-Gal4 DBD prior to pretreatment with 20 μM SINT1 or 25 μM EPI-002, which binds to the AR NTD to block AR transcriptional activity. NTD activity was induced by incubation with 50 μM forskolin or 50 ng/ml IL-6 for an additional 24 h ([7], [8]).
To test whether SINT1 can inhibit transactivation of AR NTD, LNCaP cells were co-transfected with an expression vector for AR NTD encoding amino acids 1–558 fused to the Gal4 DBD and a reporter construct with Gal4 DBD-binding sites. Transactivation of AR NTD is induced by forskolin or IL-6 ([8], [14]).

Experiment [3] has as its system FL-AR- and AR-V7-regulated genes. In words: AR-FL- and AR-V7-regulated gene expression (quantitative RT-PCR) in LNCaP95 cells. It counts as cell-based. The method, then:
At 48 h, total RNA was isolated using a PureLink RNA Mini kit (Invitrogen). For in vivo expression, tumors were harvested 3 days after last treatment, and RNA was extracted using TRIzol. Prior to cDNA generation, 4 μg of RNA were DNase-treated using DNase I (amplification grade; Sigma-Aldrich). DNase-treated RNA was split into two tubes (+RT and −RT), and cDNA was generated using the High Capacity RNA-cDNA kit (Applied Biosystems). Once complete, both reactions were adjusted to 5 ng/μl and stored at −20 °C. Approximately 5 ng of diluted cDNA and gene-specific primers were mixed with Platinum SYBR Green qPCR SuperMix-UDG with ROX (Invitrogen). The transcripts were measured using an ABI PRISM 7900 Sequence Detection System (Invitrogen). For all quantitative RT-PCR experiments, each sample was tested in triplicate, and gene expression levels were normalized to the reference gene RPL13A. Neuron-specific enolase (ENO2) (Gene ID, 2026; pair 1) and synaptophysin (SYP) (Gene ID, 6855; pair 2) human primers were from Sigma Life Science. All other primers were described previously ([4], [9]) and purchased from Integrated DNA Technologies.

[4] abbreviates: LNCaP95, 10 μM SINT1, 1 nM R1881 48 h.

Take `CC(C)(c1ccc(OC[C@H](O)CO)cc1)c1ccc(OC[C@H](O)CCl)cc1` [EPI-002, reference compound]: the “competition with Fluoromone for binding to AR LBD” value in experiment [1] is “did not compete”. Moreover, in experiment [2], the “IL-6-induced transactivation of AR NTD” value is on record as “potent inhibitor” and the “forskolin-induced transactivation of AR NTD” value is recorded as “significantly inhibited”.

Take `CCC(=O)NC(CC(C)C(Cl)(Cl)Cl)C(=O)N1C(=O)C=C(OC)C1CC(C)C(Cl)Cl` (centres unmarked) [SINT1, Sintokamide A]: the “competition with Fluoromone for binding to AR LBD” value in experiment [1] is listed as “did not compete”. Besides, in experiment [2], the “IL-6-induced transactivation of AR NTD” value is given as “no significant effect” and the “forskolin-induced transactivation of AR NTD” value was “significantly inhibited”. For the same compound, in experiment [3] (setting [4]), the “androgen-induced transcript of FL-AR-regulated gene RHOU” value is “exception”; the “androgen-induced transcripts of FL-AR-regulated genes KLK3/PSA, KLK2, TMPRSS2, NKX3.1, FKBP5 and SLC1A1” value is on record as “significantly repressed”. For the same compound, in experiment [3] (LNCaP95, 10 μM SINT1, 48 h), the “levels of AR-V7 target gene transcripts cyclin A2, CDC20, UBE2C and CDK1” value was “significantly repressed”; the “levels of AR-V7 transcript” value is recorded as “no significant effect”. In addition, the “levels of FL-AR mRNA” value in experiment [3] (LNCaP95, 10 μM SINT1, 48 h, compared with vehicle control) is “did not lead to an increase”.
